According to US9486443B2, “Pharmaceutical composition for preventing or treating hypertriglyceridemia or hypertriglyceridemia-associated diseases” (priority 2011, dated 2016):

What was measured:
[1] = system: hypertriglyceridemia and hypercholesterolemia-induced animals; experiment: Evaluation of triglyceride-inhibitory activities in hypertriglyceridemia and hypercholesterolemia-induced animals; type: in vivo, New Zealand White rabbits; conditions: oral, Formula 1 20 mg/kg/day, amlodipine 5 mg/kg/day; for average triglyceride concentration, 4 weeks: male rabbits on 0.5% cholesterol, 14% coconut oil diet, once per day for 4 weeks, fasted 12 to 16 hours
Description: Male New Zealand White rabbits were used as a test animal. All animals, except for the G1 group animals (negative control group), were fed with an irradiation-sterilized hypertriglyceridemia and hypercholesterolemia diet, i.e., DYET #621082 (Purina #5321 chow with 0.5% cholesterol, 14% coconut oil & 2% Maltose Dextrin, Dyets, Inc., Bethlehem, Pa. 18017), which was purchased from Saeronbio Inc. In order to induce hypertriglyceridemia and hypercholesterolemia, the animals were supplied with the diet for more than 4 weeks. After collecting the blood samples from the animals, serum biochemical analyses were performed thereon. Animals showing significant changes in total cholesterol levels and triglyceride levels were selected, in comparison with the non-treated control group. The selected animals were divided into 4 groups on the basis of the total cholesterol levels and triglyceride levels, thereby all the groups having substantially equal average values in the total cholesterol levels and triglyceride levels. The test materials were dissolved in saline containing 0.5% carboxymethyl-cellulose sodium and 1% Tween 80 and then administered directly into the stomach using an oral syringe adapted with a latex catheter, once per day for 4 weeks. The test groups are as in the following Table 3.
The blood samples were collected through the jugular vein, from the animals at the day initiating the administration of the test material(s) (i.e., at the time of group-dividing, 0 week), and from the animals (which were fasted for 12 to 16 hours before collecting the blood) at 4 weeks after initiating the administration of the test material(s) (n=4-7).
The triglyceride concentrations in the hypertriglyceridemia and hypercholesterolemia-induced animals as in the above are presented in the following Table 4. The values in Table 4 represent average triglyceride concentrations (mg/dL) of the respective group.

[2] = system: hypercholesterolemia-induced animals; experiment: Evaluation of triglyceride-inhibitory activities in hypercholesterolemia-induced animals; type: in vivo, New Zealand White rabbits; conditions: male rabbits on 1% cholesterol diet
Description: Male New Zealand White rabbits were used as a test animal. All animals, except for the G1 group animals (negative control group, n=4), were fed with an irradiation-sterilized hypercholesterolemia diet, i.e., DYET #620007 (Purina #5321 chow with 1% cholesterol, Dyets, Inc., Bethlehem, Pa. 18017), which was purchased from Central Lab. Animal Inc. In order to induce hypercholesterolemia, the animals were supplied with the diet for more than 8 weeks. After collecting the blood samples from the animals, serum biochemical analyses were performed thereon. Animals having total cholesterol levels of approximately 870 mg/dL were selected as a hypercholesterolemia-induced animal. The test materials were dissolved in saline containing 0.5% carboxymethylcellulose sodium and 1% Tween 80 and then administered directly into the stomach using an oral syringe adapted with a latex catheter, once per day for 4 weeks. The test groups are as in the following Table 1. […] The values in Table 2 represent average triglyceride concentrations (mg/dL) of the respective group.

| Compound | inhibition at 20 mg/kg ([1]; Oryctolagus cuniculus, 672 h, 4 weeks, in comparison with the G2 group, once per day, read-out: Percent inhibition of triglyceride in the blood) | average triglyceride concentration, 4 weeks [1] | average triglyceride concentration, 0 week ([2]; baseline sample (0 week), before administration, group average) | average triglyceride concentration, 2 weeks ([2]; oral, once per day, 2 weeks after initiating administration, fasted 12 to 16 hours, Formula 1 20 mg/kg/day, amlodipine 5, fenofibrate 30) | average triglyceride concentration, 4 weeks ([2]; oral, once per day, 4 weeks after initiating administration, fasted 12 to 16 hours, Formula 1 20 mg/kg/day, amlodipine 5, fenofibrate 30) | Percent inhibition of triglyceride in the blood ([1]; 4 weeks, in comparison with the G2 group, once per day) |
| --- | --- | --- | --- | --- | --- | --- |
| COc1cc(F)c(C(C)C)cc1-c1ccc(C(F)(F)F)cc1CN1C(=O)O[C@H](c2cc(C(F)(F)F)cc(C(F)(F)F)c2)[C@@H]1C [Compound of Formula 1, (4S,5R)-5-[3,5-bis(trifluoromethyl)phenyl]-3-({2-[4-fluoro-2-methoxy-5-(propan-2-yl)phenyl]-5-(trifluoromethyl)phenyl}methyl)-4-methyl-1,3-oxazolidin-2-one] | 10.2% | 293.1 mg/dL | 167.4 mg/dL | 255.8 mg/dL | 356.7 mg/dL | – |
| CCOC(=O)C1=C(COCCN)NC(C)=C(C(=O)OC)C1c1ccccc1Cl (stereo not shown) [Amlodipine, reference compound] | – | 268.0 mg/dL | – | – | – | 17.9% |
